Series [1] is described as follows: Solubility of components in the exemplary compositions. It is filed as physicochemical. As to conditions: in the current exemplary compositions. The method, then: Additional experiments provided a greater understanding of the ability to achieve certain functional goals for the final composition. Evaluation of phosphorus, calcium, vitamin D, fluoride, xylitol, and the pH of the alkaline ionized water was performed as described below.

The conditions of series [2]: cited from earlier work.
Series [3] is described as follows: Evaluation of calcium: bioavailability. To be noted: form of calcium.

Like-named read-outs stand apart in the source and are kept apart here.

vitamin D: in series [1], the solubility entry is “not soluble”.
Regarding `OC[C@@H](O)[C@H](O)[C@@H](O)CO` [xylitol], the dosage causing diarrhea was 100 g/day in series [2] (adults) and 45 g/day in series [2] (children). Further, the tolerated amount in series [2] (most adults) is 40 g/day.
Turning to `CC(O)C(=O)[O-].O=C([O-])[C@H](O)[C@@H](O)[C@H](O)[C@H](O)CO.[Ca+2]` [Calcium lactate gluconate], the solubility result in series [1] was “very soluble”. Also, the bioavailability entry in series [3] is reported as “bioavailable”.

The values are drawn from patent US20170035664A1, “FLAVOR-OPTIMIZED IONIZED WATER COMPOSITIONS” (priority 2015, published 2017).
